Counter-ions that a name gives are not always drawn.
These molecules were tested against T1, α-1B adrenoreceptor (Rattus norvegicus, UniProt P15823) (assay: cell-based). Settings: phenylephrine-induced contraction; Schild plot.
T1 construct: from tissue; host or cells: rat spleen
T1 sequence (P15823 1-515): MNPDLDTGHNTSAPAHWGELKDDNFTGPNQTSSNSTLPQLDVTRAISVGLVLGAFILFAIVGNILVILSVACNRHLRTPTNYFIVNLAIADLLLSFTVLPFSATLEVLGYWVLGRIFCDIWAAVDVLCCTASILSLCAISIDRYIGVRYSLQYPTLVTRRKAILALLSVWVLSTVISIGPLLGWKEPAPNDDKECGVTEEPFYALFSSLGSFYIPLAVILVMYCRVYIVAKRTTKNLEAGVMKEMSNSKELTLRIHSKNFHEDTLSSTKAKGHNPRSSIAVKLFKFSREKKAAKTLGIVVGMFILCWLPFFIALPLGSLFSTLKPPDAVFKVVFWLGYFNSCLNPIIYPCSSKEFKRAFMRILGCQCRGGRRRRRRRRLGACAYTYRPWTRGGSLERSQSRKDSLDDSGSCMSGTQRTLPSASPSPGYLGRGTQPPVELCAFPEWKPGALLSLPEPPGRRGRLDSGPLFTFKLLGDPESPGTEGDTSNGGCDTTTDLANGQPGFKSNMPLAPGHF
Outline: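 Phenylephrine dose-response curves for contraction were repeated against increasing test-agent concentrations. pA2 was derived by Schild plot [[…] vs log molarity of test agent].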
`COc1cnc2sc3c(=O)n(CCCCN4CC5COc6cccc(OC)c6[C@@H]5C4)c(=O)[nH]c3c2n1.Cl` (stereo in doubt) [Example 43, 3-[4-((3aS,9bR)-trans-9-Methoxy-1,2,3,3a,4,9b-hexahydro-[1]-benzopyrano[3,4-c]pyrrol-2-yl)butyl]-8-methoxy-pyrazino[2',3':4,5]thieno[3,2-d]pyrimidine-2,4(1H,3H)-dione hydrochloride] was tested, and the “In Vitro Characterization (pA2) Rat Spleen” value was 7.66.
`COc1cc2nc(N3CCN(C(=O)C4COc5ccccc5O4)CC3)nc(N)c2cc1OC` (centres unmarked) [Doxazosin, doxazosin, reference compound] was tested, and the “In Vitro Characterization (pA2) Rat Spleen” value was 9.51.

Same assay, conditions: phenylephrine-induced contraction; Schild plot; read-out: In Vitro Characterization (pA2) Rat Spleen (converted)
Molecule `O=c1[nH]c2c(sc3cccnc32)c(=O)n1CCCCN1C[C@@H]2COc3ccccc3[C@@H]2C1` (racemic) [Example 70, 3-[4-((±)-cis-1,2,3,3a,4,9b-hexahydro-[1]-benzopyrano[3,4-c]pyrrol-2-yl)butyl]-pyrido[2',3':4,5]thieno[3,2-d]pyrimidine-2,4(1H,3H)-dione dihydrochloride] has a Kb of 87.1 nM.
In the case of `COc1cc2[nH]c(=O)n(CCCCN3C[C@@H]4COc5ccccc5[C@@H]4C3)c(=O)c2cc1OC` (racemic) [Example 81, 3-[4-((±1-cis-1,2,3,3a,4,9b-hexahydro-[1]-benzopyrano[3,4-c]pyrrol-2-yl)butyl]-6,7-dimethoxy-quinazoline-2,4(1H,3H)-dione hydrochloride], the Kb is reported as 38.9 nM.
Molecule `COc1cccc2c1[C@@H]1CN(CCCCn3c(=O)[nH]c4c(sc5c(OC)ccnc54)c3=O)C[C@H]1CO2` [Example 17, 3-[4-((3aS,9bR)-trans-9-Methoxy-1,2,3,3a,4,9b-hexahydro-[1]-benzopyrano[3,4-c]pyrrol-2-yl)butyl]-6-methoxy-pyrido[2',3':4,5]thieno[3,2-d]pyrimidine-2,4(1H,3H)-dione dihydrochloride] has a Kb of 11 nM.
Work on `COc1cccc2c1[C@@H]1CN(CCCCn3c(=O)[nH]c4c(sc5c(OC)ccnc54)c3=O)C[C@@H]1CO2` [Example 18, 3-[4-((3aR,9bR)-cis-9-Methoxy-1,2,3,3a,4,9b-hexahydro[1]-benzopyrano[3,4-c]pyrrol-2-yl)butyl]-6-methoxy-pyrido[2',3':4,5]thieno[3,2-d]pyrimidine-2,4(1H,3H)-dione dihydrochloride] yielded a Kb of 19.5 nM.
`COc1cccc2c1[C@@H]1CN(CCCCn3c(=O)[nH]c4c(sc5ccc(Cl)nc54)c3=O)C[C@H]1CO2` [Example 25, 3-[4-((3aS,9bR)-trans-9-Methoxy-1,2,3,3a,4,9b-hexahydro-[1]-benzopyrano[3,4-c]pyrrol-2-yl)butyl]-8-chloro-pyrido[2',3':4,5]thieno[3,2-d]pyrimidine-2,4(1H,3H)-dione dihydrochloride] showed a Kb of 2 nM.
With `COc1cccc2c1[C@@H]1CN(CCCCn3c(=O)[nH]c4c(sc5ccncc54)c3=O)C[C@@H]1CO2` [Example 28, 3-[4-((3aR,9bR)-cis-9-Methoxy-1,2,3,3a,4,9b-hexahydro-[1]-benzopyrano[3,4-c]pyrrol-2-yl)butyl]-pyrido[3',4':4,5]thieno[3,2-d]pyrimidine-2,4(1H,3H)-dione dihydrochloride] the Kb was 4.37 nM.
`COc1cccc2c1[C@@H]1CN(CCCCn3c(=O)[nH]c4c(sc5cnccc54)c3=O)C[C@@H]1CO2` [Example 29, 3-[4-((3aR,9bR)-cis-9-Methoxy-1,2,3,3a,4,9b-hexahydro-[1]-benzopyrano[3,4-c]pyrrol-2-yl)butyl]-pyrido[4',3':4,5]thieno[3,2-d]pyrimidine-2,4(1H,3H)-dione dihydrochloride] showed a Kb of 12.3 nM.
For `COc1ccc2sc3c(=O)n(CCCCN4C[C@@H]5COc6cccc(OC)c6[C@@H]5C4)c(=O)[nH]c3c2n1` [Example 30, 3-[4-((3aR,9bR)-cis-9-Methoxy-1,2,3,3a,4,9b-hexahydro-[1]-benzopyrano[3,4-c]pyrrol-2-yl)butyl]-8-methoxy-pyrido[2',3':4,5]thieno[3,2-d]pyrimidine-2,4(1H,3H)-dione hydrochloride], the Kb was 21.4 nM.
For `COc1cnc2sc3c(=O)n(CCCCN4C[C@@H]5COc6cccc(OC)c6[C@@H]5C4)c(=O)[nH]c3c2n1` [Example 31, 3-[4-((3aR,9bR)-cis-9-Methoxy-1,2,3,3a,4,9b-hexahydro-[1]-benzopyrano[3,4-c]pyrrol-2-yl)butyl]-8-methoxy-pyrazino[2',3':4,5]thieno[3,2-d]pyrimidine-2,4(1H,3H)-dione hydrochloride], the Kb was 14.1 nM.
Work on `COc1cccc2c1[C@@H]1CN(CCCCn3c(=O)[nH]c4c(sc5ncccc54)c3=O)C[C@@H]1CO2` [Example 34, 3-[4-((3aR,9bR)-cis-9-Methoxy-1,2,3,3a,4,9b-hexahydro-[1]-benzopyrano[3,4-c]pyrrol-2-yl)butyl]-pyrido[3',2':4,5]thieno[3,2-d]pyrimidine-2,4(1H,3H)-dione hydrochloride] yielded a Kb of 7.59 nM.
Work on `COc1cccc2c1[C@@H]1CN(CCCCn3c(=O)[nH]c4c(sc5nc(C)ccc54)c3=O)C[C@@H]1CO2` [Example 35, 3-[4-((3aR,9bR)-cis-9-Methoxy-1,2,3,3a,4,9b-hexahydro-[1]-benzopyrano[3,4-c]pyrrol-2-yl)butyl]-7-methyl-pyrido[3',2':4,5]thieno[3,2-d]pyrimidine-2,4(1H,3H)-dione hydrochloride] yielded a Kb of 11 nM.
Work on `COc1cccc2c1[C@@H]1CN(CCCCn3c(=O)[nH]c4c(sc5nccc(OC)c54)c3=O)C[C@@H]1CO2` [Example 36, 3-[4-((3aR,9bR)-cis-9-Methoxy-1,2,3,3a,4,9b-hexahydro-[1]-benzopyrano[3,4-c]pyrrol-2-yl)butyl]-9-methoxy-pyrido[3',2':4,5]thieno[3,2-d]pyrimidine-2,4(1H,3H)-dione hydrochloride] yielded a Kb of 8.13 nM.
`COc1cccc2c1[C@@H]1CN(CCCCn3c(=O)[nH]c4c(sc5ccc(Cl)nc54)c3=O)C[C@@H]1CO2` [Example 37, 3-[4-((3aR,9bR)-cis-9-Methoxy-1,2,3,3a,4,9b-hexahydro-[1]-benzopyrano[3,4-c]pyrrol-2-yl)butyl]-8-chloro-pyrido[2',3':4,5]thieno[3,2-d]pyrimidine-2,4(1H,3H)-dione hydrochloride] was tested, and the Kb was 9.33 nM.
Work on `COc1cccc2c1[C@@H]1CN(CCCCn3c(=O)[nH]c4c(sc5cc(Cl)cnc54)c3=O)C[C@@H]1CO2` [Example 38, 3-[4-((3aR,9bR)-cis-9-Methoxy-1,2,3,3a,4,9b-hexahydro-[1]-benzopyrano[3,4-c]pyrrol-2-yl)butyl]-7-chloro-pyrido[2',3':4,5]thieno[3,2-d]pyrimidine-2,4(1H,3H)-dione hydrochloride] yielded a Kb of 19.5 nM.
`COc1cccc2c1[C@@H]1CN(CCCCn3c(=O)[nH]c4c(sc5nc(-c6ccccc6)cnc54)c3=O)C[C@@H]1CO2` [Example 40, 3-[4-((3aR,9bR)-cis-9-Methoxy-1,2,3,3a,4,9b-hexahydro-[1]-benzopyrano[3,4-c]pyrrol-2-yl)butyl]-7-phenyl-pyrazino[2',3':4,5]thieno[3,2-d]pyrimidine-2,4(1H,3H)-dione hydrochloride] gave a Kb of 759 nM.
Molecule `COc1cccc2c1[C@@H]1CN(CCCCn3c(=O)[nH]c4c(sc5ccncc54)c3=O)C[C@H]1CO2` [Example 41, 3-[4-((3aS,9bR)-trans-9-Methoxy-1,2,3,3a,4,9b-hexahydro-[1]-benzopyrano[3,4-c]pyrrol-2-yl)butyl]-pyrido[3',4':4,5]thieno[3,2-d]pyrimidine-2,4(1H,3H)-dione dihydrochloride] has a Kb of 3.98 nM.
`COc1cccc2c1[C@@H]1CN(CCCCn3c(=O)[nH]c4c(sc5cnccc54)c3=O)C[C@H]1CO2` [Example 42, 3-[4-((3aS,9bR)-trans-9-Methoxy-1,2,3,3a,4,9b-hexahydro-[1]-benzopyrano[3,4-c]pyrrol-2-yl)butyl]-pyrido[4',3':4,5]thieno[3,2-d]pyrimidine-2,4(1H,3H)-dione dihydrochloride] gave a Kb of 2.75 nM.
Work on `COc1cccc2c1[C@@H]1CN(CCCCn3c(=O)[nH]c4c(sc5ncccc54)c3=O)C[C@H]1CO2` [Example 44, 3-[4-((3aS,9bR)-trans-9-Methoxy-1,2,3,3a,4,9b-hexahydro-[1]-benzopyrano[3,4-c]pyrrol-2-yl)butyl]-pyrido[3',2':4,5]thieno[3,2-d]pyrimidine-2,4(1H,3H)-dione hydrochloride] yielded a Kb of 4.47 nM.
For `COc1cccc2c1[C@@H]1CN(CCCCn3c(=O)[nH]c4c(sc5nc(C)ccc54)c3=O)C[C@H]1CO2` [Example 45, 3-[4-((3aS,9bR)-trans-9-Methoxy-1,2,3,3a,4,9b-hexahydro-[1]-benzopyrano[3,4-c]pyrrol-2-yl)butyl]-7-methyl-pyrido[3',2':4,5]thieno[3,2-d]pyrimidine-2,4(1H,3H)-dione hydrochloride], the Kb was 1.29 nM.
In the case of `COc1ccc2c(n1)sc1c(=O)n(CCCCN3C[C@H]4COc5cccc(OC)c5[C@@H]4C3)c(=O)[nH]c12` [Example 46, 3-[4-((3aS,9bR)-trans-9-Methoxy-1,2,3,3a,4,9b-hexahydro-[1]-benzopyrano[3,4-c]pyrrol-2-yl)butyl]-7-methoxy-pyrido[3',2':4,5]thieno[3,2-d]pyrimidine-2,4(1H,3H)-dione hydrochloride], the Kb is reported as 7.59 nM.
`COc1cccc2c1[C@@H]1CN(CCCCn3c(=O)[nH]c4c(sc5nc(Cl)ccc54)c3=O)C[C@H]1CO2` [Example 47, 3-[4-((3aS,9bR)-trans-9-Methoxy-1,2,3,3a,4,9b-hexahydro-[1]-benzopyrano[3,4-c]pyrrol-2-yl)butyl]-7-chloro-pyrido[3',2':4,5]thieno[3,2-d]pyrimidine-2,4(1H,3H)-dione hydrochloride] showed a Kb of 11.2 nM.
